What was measured:
[1] = system: normal human umbilical cord vein vascular endothelial cells and normal human skin fibroblasts; assay: Measurement of angiogenesis acceleration action (in vitro), hollow organ formation, Example 1; format: cell-based
Procedure: An angiogenesis kit (manufactured by Kurabo; constituted from normal human umbilical cord vein vascular endothelial cells and normal human skin fibroblasts) was cultured for 3 hours, and then the culture medium (the medium for angiogenesis use attached to the angiogenesis kit was used as the culture medium and cultured at 37° C. under a moist environment of 5% carbon dioxide-95% air, and a carbon dioxide incubator BNA-121D was used as the incubator) was changed and an agent to be tested was added to each well (0.5 ml/well). The medium exchange was carried out also on the 3rd, 6th and 8th days after commencement of the culturing and the fresh agent to be tested was added. The kind and concentration of the agent to be tested were untreated, solvent (DMSO) 0.1%, Compound 1 10^−9, 10^−8 and 10^−7 mol/l, VEGF-A 0.1, 1 and 10 ng/ml and HGF 0.1, 1 and 10 ng/ml, and the culturing was carried out by using 3 wells for each concentration. Fixation was carried out 10 days after the commencement of culturing, and staining of hollow organ with anti-CD31 antibody was carried out by using a hollow organ staining kit (manufactured by Kurabo). As the evaluation, Chalkley Grid (a grid lens, manufactured by Kurabo) was mounted on the eyepiece of a microscope, and the hollow organ formation was evaluated by counting intersections of the randomly arrange points of Chalkley Grid with the formed hollow organ (by referring to the evaluation method of J. Pathol., 177, 275-283 (1995)). The counting was carried out at 12 positions per well, and the total was calculated.
As the agent to be tested, Compound 1 ((E)-[5-[2-[1-phenyl-1-(3-pyridyl)methylideneaminoxy]ethyl]-7,8-dihydronaphthalen-1-yloxy]acetic acid) was dissolved in dimethyl sulfoxide (DMSO) to prepare 10^−4, 10^−5 and 10^−6 mol/l solutions which were then used by diluting 1/1000 time with the culture medium.
As the VEGF-A (vascular endothelial growth factor-A), the 2 μg/ml solution of VEGF contained in the angiogenesis control reagent kit of Kurabo was diluted with the culture medium and used. […]

[2] = system: HGF; assay: Endogenous repair factor protein producing action (in vitro), HGF by ELISA, Example 2; format: cell-based, human; details: 10^-7 mol/l
Procedure: (§1) An angiogenesis kit (manufactured by Kurabo; constituted from normal human umbilical cord vein vascular endothelial cells and normal human skin fibroblasts) was cultured for 3 hours, and then the culture medium (the medium for angiogenesis use attached to the angiogenesis kit was used as the culture medium and cultured at 37° C. under a moist environment of 5% carbon dioxide-95% air, and a carbon dioxide incubator BNA-121D was used as the incubator) was changed and an agent to be tested was added to each well (0.5 ml/well). The agent to be tested were solvent (DMSO) 0.1% and Compound 1 10^−7 mol/l, and the culturing was carried out by using 3 wells for each. Culture supernatants were collected before commencement of the culturing and 1, 2, 6, 24, 48 and 72 hours after the commencement. HGF and VEGF protein concentrations in the culture supernatants were measured by using an ELISA kit (R % D system-Funakoshi).
(§2) As the agent to be tested, Compound 1 ((E)-[5-[2-[1-phenyl-1-(3-pyridyl)methylideneaminoxy]ethyl]-7,8-dihydronaphthalen-1-yloxy]acetic acid) was dissolved in dimethyl sulfoxide (DMSO) to prepare 10^−4 mol/l solution which was then used by diluting 1/1000 time with the culture medium.
(§3) Results of the solvent control wells were compared with those of the wells treated with the agent to be tested by Dunnett's test (two-sided test). The significance level was set to 5%. […]

[3] = system: VEGF; assay: Endogenous repair factor protein producing action (in vitro), VEGF by ELISA, Example 2; format: cell-based, human; details: 10^-7 mol/l
Procedure: as §1, §2, §3

[4] = system: rat leg ischemia (arteriosclerosis obliterans (ASO)) model; assay: Angiogenesis test using rat leg ischemia (ASO) model, Example 4; format: in vivo
Procedure: Leg ischemia model was prepared by ligating rat left femoral artery. Blood flow in hind legs was measured by using Laser Doppler Imager (Moor Instruments) 2 weeks after the preparation, and the animals were divided into 6 groups (n=5) in such a manner that the average value of blood flow became almost uniform.
Starting on the next day of the grouping, 0.1 ml/site, 2 sites, of the agent to be tested was administered by intramuscular injection into the left femoral adductor, for once a week, 4 times in total as a solution to be tested. One week after completion of the final administration, blood flows of hind legs were measured by using Laser Doppler Imager (Moor Instruments), and blood flows of the treated leg (left leg) and untreated leg (right leg) were compared and examined.
In this connection, construction of the solution to be tested is as follows. Solvent (control) group: 0.2 w/v % Tween 80 solution (0.2 ml).
• The polylactic acid-glycolic acid copolymer used in Preparation Example 2 was suspended in 0.2 w/v % Tween 80 solution (0.2 ml). In this connection, amount of the polylactic acid-glycolic acid copolymer is identical to the amount contained in the Compound 1 MS (1 mg). Compound 1 (1 mg) Group: • Compound 1 (1 mg) was suspended in 0.2 w/v % Tween 80 solution (0.2 ml). […]

[5] = 72 hours of culturing, vs solvent control
[6] = after 72 hours of culturing, average of 3 wells ± SD

O=C(O)COc1cccc2c1CCC=C2CCO/N=C(\c1ccccc1)c1cccnc1 [Compound 1, (E)-[5-[2-[1-phenyl-1-(3-pyridyl)methylideneaminoxy]ethyl]-7,8-dihydronaphthalen-1-yloxy]acetic acid]
hollow organ formation (Chalkley Grid count), in words ([1]; 10^-8 and 10^-7 mol/l, 10 days of culturing, vs untreated wells, Dunnett's test, FIG. 1): accelerated hollow organ formation statistically significantly
angiogenesis accelerating effect, strength compared with positive control agents ([1]; co-culture system of human vascular endothelial cells and human fibroblasts): strength equivalent to the positive control agents VEGF-A and HGF
production of HGF protein, in words [2, 5]: accelerated production of HGF protein and VEGF protein statistically significantly
HGF protein concentration in culture supernatant [2, 6]: 518 ± 15 pg/mL
production of VEGF protein, in words [3, 5]: accelerated production of HGF protein and VEGF protein statistically significantly
VEGF protein concentration in culture supernatant [3, 6]: 3034 ± 30 pg/mL
Treated leg/untreated leg blood flow ratio ([4]; 1 mg as Compound 1, i.m. left femoral adductor once a week x4, 1 week after final administration): 76.2 ± 2.8 %
blood flow improving effect, in words ([4]; 1 mg, i.m. once a week x4, vs Control / polymer group): significant recovery of blood flow against Control

— patent US8642630B2, “Endogeneous repair factor production accelerators” (Ono Pharmaceutical Co., Ltd., priority 2002, dated 2014)
